Measurements published in patent publication US20240216304A1, “CAPSAICIN AND TRPV1 MODULATOR COMPOSITIONS AND METHODS OF USE THEREOF” (The Children's Hospital of Philadelphia, priority 2020, published 2024).

Experiments:
Diabetic Mice = test: Capsaicinoid-fatty acid combinations on glucose tolerance and insulin sensitivity in diabetic mice; type: in vivo; conditions: administered in the absence of OA (capsaicin 5 mg/kg, DHC 1 mg/kg); groups discontinued after first 72 hours (6 doses)
Procedure: Eighty-four male db db mice (BKS. CG-Dock7m+/+LeprdbJ) are randomized at 8 weeks of age to produce seven equivalent groups (n=12/group) with respect to 4-hour fasting glucose and body weight. Treatment groups are as follow: Control (untreated); Capsaicin (5 mg/kg)+OA (615 mg/kg); DHC (1 mg/kg)+OA (615 mg/kg); capsaicin (10 mg/kg)+OA (615 mg/kg); DHC (10 mg/kg)+OA (615 mg/kg); capsaicin (5 mg/kg); DHC (1 mg/kg). Animals are administered the formulations via oral gavage in a volume of 5 mL/kg) twice daily for 28 days. Blood glucose is measured following a four hour fast on days 0, 7, 14, 21 and 28. On day 28, an oral glucose tolerance test (OGTT) is performed following a four-hour fast. Glucose (1.2 g/kg) is dosed at […], and glucose and insulin are measured at t=−60 minutes, 0, 15, 30, 60, 120, 180 and 240 minutes.

TRPV1 = target: T1, TRPV1 (Homo sapiens, UniProt Q8NER1); test: Capsaicinoid-induced TRPV1 signaling in DRG neurons, Fluo-8 calcium imaging; type: cell-based; conditions: for treated neurons responding: agonist alone
T1 construct: TRPV1 primary signaling in Human dorsal root ganglia (DRG) neurons in culture; endogenous in cells; host or cells: human dorsal root ganglia (DRG) neurons in culture
T1 sequence (Q8NER1 whole entry): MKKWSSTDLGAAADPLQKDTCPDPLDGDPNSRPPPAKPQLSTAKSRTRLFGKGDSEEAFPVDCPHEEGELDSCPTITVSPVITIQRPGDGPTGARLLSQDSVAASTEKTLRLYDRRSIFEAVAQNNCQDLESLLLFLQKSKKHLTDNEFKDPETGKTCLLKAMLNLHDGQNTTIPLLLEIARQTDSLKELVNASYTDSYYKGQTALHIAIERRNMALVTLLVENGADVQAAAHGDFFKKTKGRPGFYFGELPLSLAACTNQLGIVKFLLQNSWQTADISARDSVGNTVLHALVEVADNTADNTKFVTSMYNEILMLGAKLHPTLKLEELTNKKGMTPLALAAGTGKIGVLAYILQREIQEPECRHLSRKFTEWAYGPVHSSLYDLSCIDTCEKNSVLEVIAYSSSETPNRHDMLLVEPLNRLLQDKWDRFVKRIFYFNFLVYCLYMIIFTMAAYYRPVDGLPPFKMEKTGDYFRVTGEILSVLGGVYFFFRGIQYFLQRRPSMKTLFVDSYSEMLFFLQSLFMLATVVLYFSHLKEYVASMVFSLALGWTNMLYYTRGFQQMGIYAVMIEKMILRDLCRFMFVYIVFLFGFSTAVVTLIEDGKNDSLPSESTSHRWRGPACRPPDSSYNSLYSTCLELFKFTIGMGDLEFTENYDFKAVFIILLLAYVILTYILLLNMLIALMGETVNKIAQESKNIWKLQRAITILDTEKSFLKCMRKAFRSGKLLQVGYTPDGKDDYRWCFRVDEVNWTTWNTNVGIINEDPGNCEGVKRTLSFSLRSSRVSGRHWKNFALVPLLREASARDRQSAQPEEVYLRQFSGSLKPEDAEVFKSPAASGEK
Text: The aim of this study was to evaluate the effects of oleic acid on antagaonizing capsaicinoid-induced TRPV1 primary signaling in Human dorsal root ganglia (DRG) neurons in culture. Human DRG neurons were studied in a perfusion system using the calcium dye Fluo-8. Detection of intracellular calcium transients was accomplished by measuring the changes in the fluorescence intensity of the Fluo-8 calcium indicator upon excitation at 480 nm and recording of the emitted signal at 520 nm using a pcoEDGE sCMOS camera mounted on an inverted microscope (Olympus IX71). The following protocol was utilized to study the effects of the fatty acids on capsaicin and DHC-stimulated calcium currents.

SMILES: COc1cc(CNC(=O)CCCCCCC(C)C)ccc1O [DHC, dihydrocapsaicin]
- tolerability (Diabetic Mice): poorly tolerated
- maximal calcium (ΔF/F0) signal (TRPV1; DHC alone): 4.57
- treated neurons responding (TRPV1): 59%

SMILES: CCCCCCCC/C=C\CCCCCCCC(=O)O [oleic acid]
- maximal calcium (ΔF/F0) signal (TRPV1; DHC as agonist, with oleic acid administration): 2.81
- neurons responding (TRPV1; DHC as agonist, with oleic acid administration (DHC alone 59%)): 38%
- neurons responding (TRPV1; capsaicin as agonist, with oleic acid administration (capsaicin alone 74%)): 51%

SMILES: COc1cc(CNC(=O)CCCC/C=C/C(C)C)ccc1O [capsaicin, (6E)-N-[(4-Hydroxy-3-methoxyphenyl)methyl]-8-methylnon-6-enamide]
- tolerability (Diabetic Mice): poorly tolerated
- treated neurons responding (TRPV1): 74%
